Experimental data: patent US11970498B2, “CDK2 inhibitors” (BLUEPRINT MEDICINES CORPORATION, priority 2021, dated 2024)

Tests used:
[1] = molecular target: T1, CDK1/Cyclin B1, GST-tag (Homo sapiens, UniProt P06493); experiment: CDK1/Cyclin B1 biochemical phosphorylation assay (Caliper mobility shift); settings: apparent IC50; 1.0 mM ATP or ATP Km; 1.5 nM enzyme; 25° C.
T1 construct: GST
In short: (§1)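 7.5 µM 5-FAM-QSPKKG-CONH2 peptide phosphorylated by CDK2/Cyclin E (1.25 nM) or GST-CDK1/Cyclin B1 (1.5 nM) at 1.0 mM ATP or ATP Km, in HEPES pH 7.5, MgCl2, Brij-35, DTT, 1% DMSO, 25 °C to 10–20% conversion. EDTA stop; Caliper mobility-shift readout; apparent IC50 from percent activity vs log concentration.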

[2] = molecular target: CDK2/Cyclin E (Homo sapiens, UniProt P24941); experiment: CDK2/Cyclin E biochemical phosphorylation assay (Caliper mobility shift); settings: apparent IC50; 1.0 mM ATP or ATP Km; 1.25 nM enzyme; 25° C.; read-out: CDK2/cyclin E1 IC50
In short: as §1

T1 sequence (P06493 whole entry): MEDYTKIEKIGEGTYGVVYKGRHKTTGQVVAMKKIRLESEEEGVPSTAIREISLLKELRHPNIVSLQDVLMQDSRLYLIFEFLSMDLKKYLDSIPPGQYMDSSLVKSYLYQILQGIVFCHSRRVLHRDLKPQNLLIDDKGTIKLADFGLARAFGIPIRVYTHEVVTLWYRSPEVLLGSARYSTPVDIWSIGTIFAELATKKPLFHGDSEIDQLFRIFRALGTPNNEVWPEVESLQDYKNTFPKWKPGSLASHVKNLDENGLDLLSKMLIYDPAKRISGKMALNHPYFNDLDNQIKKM
T1 sequence (P14635 whole entry partner): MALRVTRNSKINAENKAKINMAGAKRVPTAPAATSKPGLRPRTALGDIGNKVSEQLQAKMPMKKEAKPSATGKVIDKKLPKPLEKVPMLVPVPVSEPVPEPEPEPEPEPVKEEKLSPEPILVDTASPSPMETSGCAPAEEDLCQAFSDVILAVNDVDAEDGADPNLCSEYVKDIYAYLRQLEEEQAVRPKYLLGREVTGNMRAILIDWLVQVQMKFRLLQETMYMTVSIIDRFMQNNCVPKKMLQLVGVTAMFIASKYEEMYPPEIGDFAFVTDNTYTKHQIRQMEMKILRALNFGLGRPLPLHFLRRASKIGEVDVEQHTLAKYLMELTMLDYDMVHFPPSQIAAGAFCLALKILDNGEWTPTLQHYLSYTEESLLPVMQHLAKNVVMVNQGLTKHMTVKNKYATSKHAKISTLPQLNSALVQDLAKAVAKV

Compound | IC50 [1] [nM] | IC50 [2] [nM]
C[C@@H](c1cncc(F)c1)n1ncc2ncc(Nc3cc(OC(F)F)[nH]n3)nc21 (single isomer, unassigned) [Example 153, (S)-N-(5-(difluoromethoxy)-1H-pyrazol-3-yl)-1-(1-(5-fluoropyridin-3-yl)ethyl)-1H-pyrazolo[3,4-b]pyrazin-6-amine or (R)-N-(5-(difluoromethoxy)-1H-pyrazol-3-yl)-1-(1-(5-fluoropyridin-3-yl)ethyl)-1H-pyrazolo[3,4-b]pyrazin-6-amine] | ≥ 500 | 10 to 20
COc1cc(Nc2cnc3cnn(Cc4cccnc4)c3n2)n[nH]1 [Example 135, N-(5-methoxy-1H-pyrazol-3-yl)-1-(pyridin-3-ylmethyl)-1H-pyrazolo[3,4-b]pyrazin-6-amine] | ≥ 500 | 10 to 20
COc1cc(Nc2cnc3cnn(CC4CC4)c3n2)n[nH]1 [Example 69, 1-(cyclopropylmethyl)-N-(5-methoxy-1H-pyrazol-3-yl)-1H-pyrazolo[3,4-b]pyrazin-6-amine] | ≥ 500 | 30 to 100
C[C@@H](c1ccccc1F)n1ncc2ncc(Nc3cc(OC(F)F)[nH]n3)nc21 [Example 46, (S)-N-(5-(difluoromethoxy)-1H-pyrazol-3-yl)-1-(1-(2-fluorophenyl)ethyl)-1H-pyrazolo[3,4-b]pyrazin-6-amine] | ≥ 500 | ≤ 10
C[C@@H](c1cc(Cl)ccn1)n1ncc2ncc(Nc3cc(OC(F)F)[nH]n3)nc21 (single isomer, unassigned) [Example 188, (S)-1-(1-(4-chloropyridin-2-yl)ethyl)-N-(5-(difluoromethoxy)-1H-pyrazol-3-yl)-1H-pyrazolo[3,4-b]pyrazin-6-amine or (R)-1-(1-(4-chloropyridin-2-yl)ethyl)-N-(5-(difluoromethoxy)-1H-pyrazol-3-yl)-1H-pyrazolo[3,4-b]pyrazin-6-amine] | ≥ 500 | 30 to 100
OCC1CC(n2ncc3ncc(Nc4cc(OC(F)F)[nH]n4)nc32)C1 (stereo not shown) [Example 219, (3-(6-((5-(difluoromethoxy)-1H-pyrazol-3-yl)amino)-1H-pyrazolo [3,4-b]pyrazin-1-yl)cyclobutyl)methanol] | ≥ 500 | 20 to 30
FC[C@H](c1ccccn1)n1ncc2ncc(Nc3cc(OC(F)F)[nH]n3)nc21 (single isomer, unassigned) [Example 16, (S)—N-(5-(difluoromethoxy)-1H-pyrazol-3-yl)-1-(2-fluoro-1-(pyridin-2-yl)ethyl)-1H-pyrazolo[3,4-b]pyrazin-6-amine or (R)—N-(5-(difluoromethoxy)-1H-pyrazol-3-yl)-1-(2-fluoro-1-(pyridin-2-yl)ethyl)-1H-pyrazolo[3,4-b]pyrazin-6-amine] | ≥ 500 | ≤ 10
N#Cc1nn(CC2CCOCC2)c2nc(Nc3cc(OC(F)F)[nH]n3)cnc12 [Example 62, 6-((5-(difluoromethoxy)-1H-pyrazol-3-yl)amino)-1-((tetrahydro-2H-pyran-4-yl)methyl)-1H-pyrazolo[3,4-b]pyrazine-3-carbonitrile] | ≥ 500 | ≤ 10
FC[C@H](C1CCOCC1)n1ncc2ncc(Nc3cc(OC(F)F)[nH]n3)nc21 (single isomer, unassigned) [Example 183] | ≥ 500 | 30 to 100
FC(F)Oc1cc(Nc2cnc3cnn(CCc4cn[nH]c4)c3n2)n[nH]1 [Example 129, 1-(2-(1H-pyrazol-4-yl)ethyl)-N-(5-(difluoromethoxy)-1H-pyrazol-3-yl)-1H-pyrazolo[3,4-b]pyrazin-6-amine] | 100 to 500 | ≤ 10
CCOc1cc(Nc2cnc3cnn(CC4CCOCC4)c3n2)n[nH]1 [Example 38, N-(5-ethoxy-1H-pyrazol-3-yl)-1-((tetrahydro-2H-pyran-4-yl)methyl)-1H-pyrazolo[3,4-b]pyrazin-6-amine] | 100 to 500 | ≤ 10
Cc1nn(CC2CCOCC2)c2nc(Nc3cc(OC(F)F)[nH]n3)cnc12 [Example 87, N-(5-(difluoromethoxy)-1H-pyrazol-3-yl)-3-methyl-1-((tetrahydro-2H-pyran-4-yl)methyl)-1H-pyrazolo[3,4-b]pyrazin-6-amine] | 100 to 500 | ≤ 10
FC(F)Oc1cc(Nc2cnc3cnn([C@@H](c4cccnc4)C4CC4)c3n2)n[nH]1 (single isomer, unassigned) [Example 148, (S)-1-(cyclopropyl(pyridin-3-yl)methyl)-N-(5-(difluoromethoxy)-1H-pyrazol-3-yl)-1H-pyrazolo[3,4-b]pyrazin-6-amine or (R)-1-(cyclopropyl(pyridin-3-yl)methyl)-N-(5-(difluoromethoxy)-1H-pyrazol-3-yl)-1H-pyrazolo[3,4-b]pyrazin-6-amine] | ≥ 500 | ≤ 10
FC(F)Oc1cc(Nc2cnc3cnn(CC4CC4)c3n2)n[nH]1 [Example 80, 1-(cyclopropylmethyl)-N-(5-(difluoromethoxy)-1H-pyrazol-3-yl)-1H-pyrazolo[3,4-b]pyrazin-6-amine] | ≥ 500 | ≤ 10
OC[C@@H](c1cccnc1)n1ncc2ncc(Nc3cc(OC(F)F)[nH]n3)nc21 [Example 204, (R)-2-(6-((5-(difluoromethoxy)-1H-pyrazol-3-yl)amino)-1H-pyrazolo[3,4-b]pyrazin-1-yl)-2-(pyridin-3-yl)ethan-1-ol] | ≥ 500 | 20 to 30
Cn1cncc1Cn1ncc2ncc(Nc3cc(OC(F)F)[nH]n3)nc21 [Example 131, N-(5-(difluoromethoxy)-1H-pyrazol-3-yl)-1-((1-methyl-1H-imidazol-5-yl)methyl)-1H-pyrazolo[3,4-b]pyrazin-6-amine] | ≥ 500 | 30 to 100
CC[C@@H]([C@@H](C)O)n1ncc2ncc(Nc3cc(OC(F)F)[nH]n3)nc21 (single isomer, unassigned) [Example 201, (2R,3S)-3-(6-((5-(difluoromethoxy)-1H-pyrazol-3-yl)amino)-1H-pyrazolo[3,4-b]pyrazin-1-yl)pentan-2-ol or (2R,3R)-3-(6-((5-(difluoromethoxy)-1H-pyrazol-3-yl)amino)-1H-pyrazolo[3,4-b]pyrazin-1-yl)pentan-2-ol] | ≥ 500 | > 100
FC(F)Oc1cc(Nc2cnc3cnn(C[C@@H]4CC4(F)F)c3n2)n[nH]1 (single isomer, unassigned) [Example 163, (S)-1-((2,2-difluorocyclopropyl)methyl)-N-(5-(difluoromethoxy)-1H-pyrazol-3-yl)-1H-pyrazolo[3,4-b]pyrazin-6-amine or (R)-1-((2,2-difluorocyclopropyl)methyl)-N-(5-(difluoromethoxy)-1H-pyrazol-3-yl)-1H-pyrazolo[3,4-b]pyrazin-6-amine] | ≥ 500 | ≤ 10
C[C@@H]([C@H]1CCCOC1)n1ncc2ncc(Nc3cc(OC(F)F)[nH]n3)nc21 (single isomer, unassigned) [Example 217] | ≥ 500 | 30 to 100
OC1(Cn2ncc3ncc(Nc4cc(OC(F)F)[nH]n4)nc32)CCOCC1 [Example 49, 4-((6-((5-(difluoromethoxy)-1H-pyrazol-3-yl)amino)-1H-pyrazolo[3,4-b]pyrazin-1-yl)methyl)tetrahydro-2H-pyran-4-ol] | 100 to 500 | ≤ 10
FC(F)Oc1cc(Nc2cnc3cnn(CC45CC(C4)C5)c3n2)n[nH]1 [Example 106, 1-(bicyclo[1.1.1]pentan-1-ylmethyl)-N-(5-(difluoromethoxy)-1H-pyrazol-3-yl)-1H-pyrazolo[3,4-b]pyrazin-6-amine] | 100 to 500 | ≤ 10
COc1cc(Nc2cnc3cnn(C(C)c4cccnn4)c3n2)n[nH]1 (single isomer, unassigned) [Example 32, (S)—N-(5-methoxy-1H-pyrazol-3-yl)-1-(1-(pyridazin-3-yl)ethyl)-1H-pyrazolo[3,4-b]pyrazin-6-amine or (R)—N-(5-methoxy-1H-pyrazol-3-yl)-1-(1-(pyridazin-3-yl)ethyl)-1H-pyrazolo[3,4-b]pyrazin-6-amine] | ≥ 500 | 20 to 30
FC(F)Oc1cc(Nc2cnc3cnn(C[C@H]4C[C@@H]5[C@H](C4)C5(F)F)c3n2)n[nH]1 [Example 126, 1-(((1R,3r,5S)-6,6-difluorobicyclo[3.1.0]hexan-3-yl)methyl)-N-(5-(difluoromethoxy)-1H-pyrazol-3-yl)-1H-pyrazolo[3,4-b]pyrazin-6-amine] | < 100 | ≤ 10
C[C@@H](O)c1nn(CC2CCOCC2)c2nc(Nc3cc(OC(F)F)[nH]n3)cnc12 (single isomer, unassigned) [Example 175, (R)-1-(6-((5-(difluoromethoxy)-1H-pyrazol-3-yl)amino)-1-((tetrahydro-2H-pyran-4-yl)methyl)-1H-pyrazolo[3,4-b]pyrazin-3-yl)ethan-1-ol or (S)-1-(6-((5-(difluoromethoxy)-1H-pyrazol-3-yl)amino)-1-((tetrahydro-2H-pyran-4-yl)methyl)-1H-pyrazolo[3,4-b]pyrazin-3-yl)ethan-1-ol] | 100 to 500 | ≤ 10
FC(F)Oc1cc(Nc2cnc3cnn([C@H](c4ccccn4)C(F)F)c3n2)n[nH]1 (single isomer, unassigned) [Example 149, (R)-1-(2,2-difluoro-1-(pyridin-2-yl)ethyl)-N-(5-(difluoromethoxy)-1H-pyrazol-3-yl)-1H-pyrazolo[3,4-b]pyrazin-6-amine or (S)-1-(2,2-difluoro-1-(pyridin-2-yl)ethyl)-N-(5-(difluoromethoxy)-1H-pyrazol-3-yl)-1H-pyrazolo[3,4-b]pyrazin-6-amine] | ≥ 500 | 30 to 100
C[C@@H]([C@@H]1COCCO1)n1ncc2ncc(Nc3cc(OC(F)F)[nH]n3)nc21 (single isomer, unassigned) [Example 212] | ≥ 500 | > 100
